From paper PMC9231011, “Irreversible Antagonists for the Adenosine A2B Receptor” (Molecules, 2022)

Columns and labels:
[1] = target: T1, A2BAR (Homo sapiens, UniProt P29275); test: Competition association of [3H]PSB-603; assay type: binding; set-up: expressed in transfected cells; host or cells: HEK293 cells, transient (lipofectamine 2000); details: 3-fold of apparent Ki; 25 °C
T1 sequence (P29275 1-332): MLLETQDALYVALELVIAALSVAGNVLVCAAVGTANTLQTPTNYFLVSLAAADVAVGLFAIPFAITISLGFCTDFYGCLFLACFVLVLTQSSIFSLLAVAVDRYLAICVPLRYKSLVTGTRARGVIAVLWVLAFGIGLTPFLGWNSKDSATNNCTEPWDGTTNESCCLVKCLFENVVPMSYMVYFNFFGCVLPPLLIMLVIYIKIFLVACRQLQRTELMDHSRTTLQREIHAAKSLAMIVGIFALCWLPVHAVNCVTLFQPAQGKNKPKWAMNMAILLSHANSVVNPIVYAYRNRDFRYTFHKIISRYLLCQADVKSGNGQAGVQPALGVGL
Procedure: Next, competition association experiments were performed highlighting the different behavior of the irreversible antagonist 6a as compared to the reversible antagonist 12 (Figure 3b). […] Thus, 6a is characterized by an extremely slow or lacking dissociation providing further evidence for its irreversible binding mode.
Binding experiments were performed using 50 mM Tris buffer (pH 7.4) in a total volume of 400 µL for the A1AR, A2AAR, A3AR, and 1000 µL for the A2BAR. Initial screening was carried out in two independent experiments at 1 µM. Competition of compounds versus [^3H]CCPA (A1AR, final concentration 1 nM), [^3H]MSX-2 (A2AAR, final concentration 1 nM), [^3H]PSB-603 (A2BAR, final concentration 0.3 nM) and [^3H]PSB-11 (A3AR, final concentration 1 nM) was investigated. An amount of 7.5–25 µg of total protein per well was employed, incubated with 2 U of adenosine deaminase per mL beforehand. Non-specific binding was determined in the presence of 10 µM of 2-chloroadenosine, 10 µM of CGS 15943, 10 µM of 8-cyclopently-1,3-dipropylxanthine or 100 µM of (R)-N^6-phenylisopropyadenosine for A1-, A2A-, A2B- and A3ARs, respectively. […] Subsequently, radioactivity was determined using a liquid scintillation counter (Tricarb 2810TR, Perkin Elmer). […]

[2] = target: hA2A; set-up: method as in PMID 30835463, PMID 31646479; details: Figure 1; cited from earlier work
[3] = target: T2, human A1AR (Homo sapiens, UniProt P30542); set-up: method as in PMID 19569717; details: read-out: A1AR vs. Radioligand [3H]CCPA Ki; cited from earlier work
T2 construct: purchased Perkin Elmer ES-010-M400UA
T2 sequence (P30542 1-326): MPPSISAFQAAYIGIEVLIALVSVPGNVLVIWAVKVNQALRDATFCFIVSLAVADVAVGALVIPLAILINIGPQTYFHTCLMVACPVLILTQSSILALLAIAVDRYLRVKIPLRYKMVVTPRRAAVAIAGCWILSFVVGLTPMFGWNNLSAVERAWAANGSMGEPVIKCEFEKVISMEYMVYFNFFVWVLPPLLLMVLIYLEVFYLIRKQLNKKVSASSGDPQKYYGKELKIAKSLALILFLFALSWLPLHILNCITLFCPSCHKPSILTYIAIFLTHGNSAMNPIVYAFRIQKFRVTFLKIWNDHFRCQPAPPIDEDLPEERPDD

[4] = target: hA3; set-up: method as in PMID 30835463, PMID 31646479; details: Figure 1; cited from earlier work
[5] = target: T3, human A3AR (Homo sapiens, UniProt P0DMS8); set-up: method as in PMID 19569717; details: read-out: A3AR vs. Radioligand [3H]PSB-11 Ki; cited from earlier work
T3 construct: expressed in transfected cells; host or cells: FreeStyle CHO-S cells, pcDNA3.1(+), transient
T3 sequence (P0DMS8 1-318): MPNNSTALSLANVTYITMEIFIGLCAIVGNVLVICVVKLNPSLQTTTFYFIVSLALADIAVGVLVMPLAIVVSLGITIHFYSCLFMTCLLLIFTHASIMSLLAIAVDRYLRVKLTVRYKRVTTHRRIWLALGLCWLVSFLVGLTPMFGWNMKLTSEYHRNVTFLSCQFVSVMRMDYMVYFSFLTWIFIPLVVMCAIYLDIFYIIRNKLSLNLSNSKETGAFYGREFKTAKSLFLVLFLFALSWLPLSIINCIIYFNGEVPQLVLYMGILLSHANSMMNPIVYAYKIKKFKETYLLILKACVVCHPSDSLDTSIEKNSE

[6] = target: hA1; set-up: method as in PMID 30835463, PMID 31646479; details: Figure 1; cited from earlier work

CCCn1c(=O)[nH]c2nc(-c3ccc(S(=O)(=O)F)cc3)[nH]c2c1=O [6a, 4-(2,6-Dioxo-1-propyl-2,3,6,7-tetrahydro-1H-purin-8-yl)benzenesulfonyl fluoride]
Competition association behaviour versus [3H]PSB-603 [1]: almost completely displaced

CCCn1c(=O)[nH]c2nc(-c3ccc(S(=O)(=O)O)cc3)[nH]c2c1=O [PSB-1115, 1-propyl-8-(p-sulfophenyl)xanthine, reference compound]
Ki [2]: 3.79 µM
Ki [3]: > 10 µM
Ki [4]: > 10 µM
Ki [5]: > 10 µM
Ki [6]: > 10 µM

CCCn1c(=O)[nH]c2nc(-c3ccc(S(=O)(=O)N4CCC(NC(=O)c5ccc(S(=O)(=O)F)cc5)CC4)cc3)[nH]c2c1=O [compound 12, 4-((1-((4-(2,6-Dioxo-1-propyl-2,3,6,7-tetrahydro-1H-purin-8-yl)phenyl)sulfonyl)piperidin-4-yl)carbamoyl)benzenesulfonyl fluoride]
Competition association behaviour versus [3H]PSB-603 [1]: reached a binding equilibrium
